Experimental data reported in patent US20230381142A1, “ANTILEISHMANIAL COMPOUNDS, COMPOSITIONS AND USE THEREOF” (TRUSTEES OF BOSTON UNIVERSITY, priority 2022, published 2023).
Like-named read-outs stand apart in the source and are kept apart here.

Experiments:
[1] = tested on: L. donovani intracellular amastigotes in B10R cells; assay: UCSD L. donovani infection assay (Assay Conditions D); format: cell-based; settings: B10R cells; for L. donovani amastigotes EC75 (B10R cells): footnote d
Description: (§1) Assay Conditions D: B10R cells (CVCL_0155) were seeded at 300 cells/well, and L. donovani WT promastigotes in stationary phase (7th day after passage) were added at 6,000 parasites/well (ratio of 20 parasites/cell). Both cells and parasites were seeded in DMEM High-Glucose medium (Gibco, cat. no. 11995065) containing 5% Fetal Bovine Serum (Sigma-Aldrich, cat. no. F2442) and 1% Penicillin-Streptomycin (Gibco, cat. no. 15140122). Cells and parasites were incubated in the presence of the compounds for 72 h at 37° C. and 5% C02. Plates were then fixed with 4% formaldehyde solution for at least 1 h, then washed with 1×PBS and stained with 5 μg/mL DAPI. Plates were read using an ImageXpress microscope (Molecular Devices) and analyzed by MetaXpress software (Molecular Devices) using a custom module optimized for this assay. […] Compounds were tested in a 10-point 2-fold serial dilution in 3 technical replicates, and 2 biological replicates. After 72 h, plates were fixed and stained with DAPI as described above. Images were acquired on an ImageXpress microscope, and analyzed using the MetaXpress custom module.
as §1, with “Compounds were obtained as 0.2 μmoles of dried film for primary single point screening. Each compound was diluted in DMSO to 10 μM final testing concentration. These compounds were tested in 2 biological replicates. The compounds were pre-spotted onto 384-well assay plates in single concentration.” for “Assay Conditions D:”, “CO2.” for “C02.”, “module. The DRCs were plotted, half-effective concentration (EC50) and half-cytotoxic concentration (CC50) were calculated using GraphPad Prism Software, version 6.05 (GraphPad Software, San Diego, CA).” for “module.”

[2] = GSK inMac assay, host cell toxicity readout (LD MAC); format: cell-based, human; settings: human
Description: (§2) The intramacrophage Leishmania donovani activity assay (LD AMMAC) at GlaxoSmithKline was performed as described.
(§3) Given the literature precedents described above and the apparent narrow tolerance for R^3 substitutions observed in the primary screen compounds, a thorough and methodical assessment was undertaken of tolerated groups at the three points of diversity (R^1/R^2/R^3) for the core. At this stage of the project, all analogues were assessed using a battery of assays performed in-house at GlaxoSmithKline. For antileishmanial activity, GSK's inMac assay was utilized. This assay provides two readouts of compound potency: average number of intracellular amastigotes per infected cell (AMMAC) EC50, percentage of infected cells per well (INFCELL) EC50, as well as a toxicity output derived from the number of host cells (MAC EC50). In addition, compounds were assessed for toxicity against HepG2 cells (HEPG2 EC50). Here, AMMAC EC50 values were focused on for relative potency assessments. […] It should be noted that for all compounds assessed in this project, the measured toxicity against THP-1 macrophages either equaled or exceeded that of HepG2 hepatocytes, therefore the MAC SI is used here as the more conservative estimate of therapeutic index.

[3] = tested on: L. donovani intracellular amastigotes infecting THP-1 macrophages; assay: GSK intramacrophage L. donovani assay (LD AMMAC, inMac; Assay Conditions C); format: cell-based; settings: Leishmania donovani; THP-1 cells; values marked c; read-out: L. donovani amastigotes EC50 (THP-1 cells)
Description: Assay Conditions C: The intramacrophage Leishmania donovani activity assay was performed as described in Antimicrob Agents Chemother (2013) 57(7):2913-22.
as §2, §3

[4] = footnote c, read-out: THP-1 Host Cell CC50

Structure (SMILES)	L. donovani amastigotes EC75 (μM, B10R cells) [1] [µM]	also measured
Cc1ccccc1C1c2c(CC(C)C)n[nH]c2C(=O)N1c1ccn(C)n1 (centres unmarked) [BUCMD00657]	>10	
CC(C)Cc1n[nH]c2c1C(c1ccc(F)cc1Br)N(c1ccn(C)n1)C2=O (centres unmarked) [BUCMD00658]	>10	
CC(C)Cc1n[nH]c2c1C(c1ccc(F)cc1F)N(c1ccn(C)n1)C2=O (centres unmarked) [BUCMD00659]	>10	
Cc1ccsc1C1c2c(CC(C)C)n[nH]c2C(=O)N1c1ccn(C)n1 (centres unmarked) [BUCMD00660]	>10	
CC(C)Cc1n[nH]c2c1C(c1ccccc1C(F)(F)F)N(c1ccn(C)n1)C2=O (centres unmarked) [BUCMD00661]	>10	
CC(C)Cc1n[nH]c2c1C(c1sccc1Br)N(c1ccn(C)n1)C2=O (centres unmarked) [BUCMD00662]	>10	
CCn1cc(N2C(=O)c3[nH]nc(CC(C)C)c3C2c2ccc(F)cc2C)cn1 (centres unmarked) [BUCMD00663]	4.0	
CCn1cc(N2C(=O)c3[nH]nc(CC(C)C)c3C2c2ccc(Br)cc2F)cn1 (centres unmarked) [BUCMD00664]	>10	
CCn1cc(N2C(=O)c3[nH]nc(CC(C)C)c3C2c2ccc(F)cc2Cl)cn1 (centres unmarked) [BUCMD00665]	>10	
CCn1cc(N2C(=O)c3[nH]nc(CC(C)C)c3C2c2ccc(Cl)cc2F)cn1 (centres unmarked) [BUCMD00666]	>10	
CCn1cc(N2C(=O)c3[nH]nc(CC(C)C)c3C2c2ccccc2C)cn1 (centres unmarked) [BUCMD00667]	>10	
CCn1cc(N2C(=O)c3[nH]nc(CC(C)C)c3C2c2ccccc2Cl)cn1 (centres unmarked) [BUCMD00668]	5.8	
CCn1cc(N2C(=O)c3[nH]nc(CC(C)C)c3C2c2ccc(F)cc2Br)cn1 (centres unmarked) [BUCMD00669]		L. donovani amastigotes EC75 (B10R cells) [1]: 0.7 µM
CCn1cc(N2C(=O)c3[nH]nc(CC(C)C)c3C2c2ccc(F)cc2F)cn1 (centres unmarked) [BUCMD00670]	>10	
CCn1cc(N2C(=O)c3[nH]nc(CC(C)C)c3C2c2sccc2C)cn1 (centres unmarked) [BUCMD00672]	6.9	
CC(C)Cc1n[nH]c2c1C(c1ccc(F)cc1Cl)N(c1cnn(C(C)C)c1)C2=O (centres unmarked) [BUCMD00674]	10.0	
CC(C)Cc1n[nH]c2c1C(c1ccc(Cl)cc1F)N(c1cnn(C(C)C)c1)C2=O (centres unmarked) [BUCMD00675]	>10	
CC(C)Cc1n[nH]c2c1C(c1ccccc1Cl)N(c1cnn(C(C)C)c1)C2=O (centres unmarked) [BUCMD00676]	>10	
Cc1ccccc1C1c2c(CC(C)C)n[nH]c2C(=O)N1c1cnn(C(C)C)c1 (centres unmarked) [BUCMD00677]	>10	
CC(C)Cc1n[nH]c2c1C(c1ccc(F)cc1F)N(c1cnn(C(C)C)c1)C2=O (centres unmarked) [BUCMD00678]	>10	
CC(C)Cc1n[nH]c2c1C(c1ccccc1C(F)(F)F)N(c1cnn(C(C)C)c1)C2=O (centres unmarked) [BUCMD00679]	10.4	
Cc1ccsc1C1c2c(CC(C)C)n[nH]c2C(=O)N1c1cnn(C(C)C)c1 (centres unmarked) [BUCMD00680]	>10	
Cc1cc(F)ccc1C1c2c(CC(C)C)n[nH]c2C(=O)N1c1cncc(F)c1 (centres unmarked) [BUCMD00693]	>10	
CC(C)Cc1n[nH]c2c1C(c1ccc(Cl)cc1F)N(c1cncc(F)c1)C2=O (centres unmarked) [BUCMD00695]		L. donovani amastigotes EC75 (B10R cells) [1]: 0.5 µM
CC(C)Cc1n[nH]c2c1C(c1ccccc1Cl)N(c1cncc(F)c1)C2=O (centres unmarked) [BUCMD00696]	>10	
Cc1ccccc1C1c2c(CC(C)C)n[nH]c2C(=O)N1c1cncc(F)c1 (centres unmarked) [BUCMD00697]	2.6	

Structure (SMILES)	L. donovani amastigotes EC75 (μM, B10R cells) [1] [µM]	also measured
CC(C)Cc1n[nH]c2c1C(c1ccc(F)cc1F)N(c1cncc(F)c1)C2=O (centres unmarked) [BUCMD00698]	2.3	
Cc1ccsc1C1c2c(CC(C)C)n[nH]c2C(=O)N1c1cncc(F)c1 (centres unmarked) [BUCMD00702]	7.3	
CC(C)Cc1n[nH]c2c1C(c1ccccc1F)N(c1ccc(C(=O)N3CCCC3)cc1)C2=O (centres unmarked) [BUCMD00715]	>10	
CC(C)Cc1n[nH]c2c1C(c1ccc(F)c(F)c1)N(c1ccc(C(=O)N3CCCC3)cc1)C2=O (centres unmarked) [BUCMD00716]	>10	
CC(C)Cc1n[nH]c2c1C(c1ccccc1Cl)N(c1ccc(N3CCN(C)CC3)nc1)C2=O (centres unmarked) [BUCMD00720]	5.1	
Cc1ccccc1C1c2c(CC(C)C)n[nH]c2C(=O)N1c1ccc(N2CCN(C)CC2)nc1 (centres unmarked) [BUCMD00721]	5.0	
Cc1cc(F)ccc1C1c2c(CC(C)C)n[nH]c2C(=O)N1c1ccc(C(=O)N2CCCC2)cc1 (centres unmarked) [BUCMD00726]	>10	
CC(C)Cc1n[nH]c2c1C(c1ccccc1Cl)N(c1ccc(C(=O)N3CCCC3)cc1)C2=O (centres unmarked) [BUCMD00727]	>10	
COc1ncc(N2C(=O)c3[nH]nc(CC(C)C)c3C2c2ccc(Cl)cc2F)cc1F (centres unmarked) [BUCMD00731]	>10	
COc1ncc(N2C(=O)c3[nH]nc(CC(C)C)c3C2c2ccccc2Cl)cc1F (centres unmarked) [BUCMD00732]	1.9	
COc1ncc(N2C(=O)c3[nH]nc(CC(C)C)c3C2c2ccccc2C)cc1F (centres unmarked) [BUCMD00733]	1.0	
COc1ncc(N2C(=O)c3[nH]nc(CC(C)C)c3C2c2ccc(F)cc2F)cc1F (centres unmarked) [BUCMD00734]	1.5	
C#CCCCCOc1ccc(N2C(=O)c3[nH]nc(CC(C)C)c3C2c2ccc(F)cc2)cn1 (centres unmarked) [BUCMD00739]	>10	
COc1ccc(N2C(=O)c3[nH]nc(CC(C)C)c3C2c2c(Cl)cccc2Cl)cc1 (centres unmarked) [BUCMD00797]		CC50 [2, 4]: 2.5 µM; EC50 [3]: 1 µM
CC(C)Cc1n[nH]c2c1C(c1ccccc1Br)N(CCN1CCCC1)C2=O (centres unmarked) [BUCMD00798]		CC50 [2, 4]: > 50 µM; EC50 [3]: 31.6 µM
CC(C)Cc1n[nH]c2c1C(c1ccccc1Cl)N(CCN1CCCC1)C2=O (centres unmarked) [BUCMD00799]		CC50 [2, 4]: > 50 µM; EC50 [3]: 20 µM
COc1ccc(N2C(=O)c3[nH]nc(CC(C)C)c3C2c2ccc(F)cc2C)cc1 (centres unmarked) [BUCMD00800]		CC50 [2, 4]: 25.1 µM; EC50 [3]: 0.5 µM
COc1ccc(N2C(=O)c3[nH]nc(CC(C)C)c3C2c2ccnnc2)cc1 (centres unmarked) [BUCMD00801]		CC50 [2, 4]: > 50 µM; EC50 [3]: > 50 µM
COc1ccc(N2C(=O)c3[nH]nc(CC(C)C)c3C2c2ccc(F)c(C(F)(F)F)c2)cc1 (centres unmarked) [BUCMD00802]		CC50 [2, 4]: 25.1 µM; EC50 [3]: 5 µM
COc1cc(N2C(=O)c3[nH]nc(CC(C)C)c3C2c2cccc(C(F)(F)F)c2)cc(OC)c1OC (centres unmarked) [BUCMD00803]		CC50 [2, 4]: 12.6 µM; EC50 [3]: 5 µM
CC(C)Cc1n[nH]c2c1C(c1cccc(C(F)(F)F)c1)N(c1ccc3ncnn3c1)C2=O (centres unmarked) [BUCMD00804]		CC50 [2, 4]: ≥ 50.1 µM; EC50 [3]: 7.9 µM
CC(C)Cc1n[nH]c2c1C(c1ccc(F)cc1)N(c1cccc(C#N)c1)C2=O (centres unmarked) [BUCMD00806]		CC50 [2, 4]: > 50 µM; EC50 [3]: 25.1 µM
CC(C)Cc1n[nH]c2c1C(c1ccc(F)cc1)N(c1ccc(C#N)cc1)C2=O (centres unmarked) [BUCMD00807]		CC50 [2, 4]: 25.1 µM; EC50 [3]: 12.6 µM
COc1ccc(N2C(=O)c3[nH]nc(CC(C)C)c3C2c2ccc(F)cc2)cn1 (centres unmarked) [BUCMD00808]		CC50 [2, 4]: > 50 µM; EC50 [3]: 10 µM
COc1ccc(N2C(=O)c3c(c(CC(C)C)nn3C)C2c2ccc(Br)cc2)cc1 (centres unmarked) [CMLD006598]		CC50 ([2]; host THP-1 cells): ≥ 50.1 µM
